Measured values published in ChEMBL document CHEMBL5331119, “Basic Nitrogen (BaN) Is a Key Property of Antimalarial Chemical Space” (J Med Chem, 2023).

Legend:
[1] = system: Plasmodium falciparum; test: Antiplasmodial activity against Plasmodium falciparum NF54 assessed as inhibition of parasite growth by microdilution analysis; type: functional, organism-based
[2] = system: Plasmodium falciparum; test: Antiplasmodial activity against Plasmodium falciparum K1 assessed as inhibition of parasite growth by microdilution analysis; type: functional, organism-based
[3] = target: human dihydroorotate dehydrogenase (DHODH), mitochondrial (Homo sapiens, UniProt Q02127); test: in vitro
Description: Inhibition of human DHODH

[4] = system: Plasmodium falciparum; test: Antiplasmodial activity against Plasmodium falciparum 3D7; type: functional, organism-based
[5] = system: Plasmodium falciparum; test: Antiplasmodial activity against Plasmodium falciparum NF54 incubated for 48 hrs by lactate dehydrogenase assay; type: functional, organism-based; details: NF54, 48 h
[6] = system: Plasmodium falciparum; test: Antimalarial activity against Plasmodium falciparum FcB1; type: functional, organism-based

human dihydroorotate dehydrogenase (DHODH), mitochondrial, sequence (Q02127 whole entry): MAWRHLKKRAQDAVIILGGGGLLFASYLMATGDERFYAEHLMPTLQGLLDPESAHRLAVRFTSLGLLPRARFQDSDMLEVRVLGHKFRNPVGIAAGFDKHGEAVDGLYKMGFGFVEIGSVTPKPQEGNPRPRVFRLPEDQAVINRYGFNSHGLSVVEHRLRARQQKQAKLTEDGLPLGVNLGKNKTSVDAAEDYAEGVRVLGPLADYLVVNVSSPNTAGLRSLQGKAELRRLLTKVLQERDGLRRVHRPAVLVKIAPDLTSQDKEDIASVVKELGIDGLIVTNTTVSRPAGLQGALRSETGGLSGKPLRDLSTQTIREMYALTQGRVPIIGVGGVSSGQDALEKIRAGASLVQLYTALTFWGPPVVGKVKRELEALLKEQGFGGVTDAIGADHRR

CCN(CC)CCCC(C)Cc1ccnc2cc(Cl)ccc12 (stereo not drawn)
IC50 [1]: 3000 nM
IC50 [2]: 3000 nM

CCN(CC)CCCC(C)Nc1cccc2cc(Cl)ccc12 (stereo not drawn)
IC50 [1]: 3000 nM
IC50 [2]: 3000 nM

Cc1c(Cc2cnc(C(F)(F)F)nc2)c[nH]c1C(=O)NC1CC1
IC50 [3]: > 100000 nM

CCOC(=O)c1[nH]c(C)c(Cc2ccc(C(F)(F)F)nc2)c1C
EC50 [4]: 9 nM
IC50 [3]: > 100000 nM

CCOC(=O)c1[nH]c(C)c(Cc2ccc(C(F)(F)F)cc2)c1C
EC50 [4]: 61 nM
IC50 [3]: > 100000 nM

Cc1[nH]c(C(=O)NC2CC2)c(C)c1Cc1ccc(C(F)(F)F)nc1
IC50 [3]: > 100000 nM

O=C1CN(c2nc3cc(Cl)ccc3n2Cc2ccccc2)CCN1
IC50 [5]: > 1000 nM

CC(=O)N1CCN(c2nc3cc(Cl)ccc3n2Cc2ccccc2)CC1
IC50 [5]: > 1000 nM

Cc1ccc(S(=O)(=O)N2CCN(c3nc4cc(Cl)ccc4n3Cc3ccccc3)CC2)cc1
IC50 [5]: 5260 nM

CCOC(=O)c1[nH]c(C)c(Cc2ccc(OCC)cc2)c1C
EC50 [4]: 230 nM
IC50 [3]: > 100000 nM

C[C@H]1[C@H](C)CC[C@]2(C(=O)NCCCN3CCN(CCCNCc4ccc(O)cc4)CC3)CC[C@]3(C)C(=CC[C@@H]4[C@@]5(C)CC[C@H](O)C(C)(C)[C@@H]5CC[C@]43C)[C@H]12 (single isomer, unassigned)
IC50 [6]: 80 nM

CC[C@H]1OC(=O)[C@H](C)[C@@H](O[C@H]2C[C@@](C)(OC)[C@@H](O)[C@H](C)O2)[C@H](C)[C@@H](O[C@@H]2O[C@H](C)C[C@H](N(C)C)[C@H]2O)[C@](C)(O)C[C@@H](C)CN(C)[C@H](C)[C@@H](O)[C@]1(C)O [AZITHROMYCIN]
IC50 [4]: 2650 nM

C[C@H]1[C@H](C)CC[C@]2(C(=O)O)CC[C@]3(C)C(=CC[C@@H]4[C@@]5(C)CC[C@H](O)C(C)(C)[C@@H]5CC[C@]43C)[C@H]12 [URSOLIC ACID]
IC50 [6]: 52900 nM
